Laboratory results published in US20240108610A1, “RECTAL ADMINISTRATION OF ROFLUMILAST FOR THE TREATMENT OF CROHN'S DISEASE” (King Abdulaziz University, priority 2022, published 2024).

Tests used:
[1] = system: trinitrobenzenesulfonic acid (TNBS)-induced colitis; assay: Histopathological examination of colonic sections (H&E, Masson trichrome, PAS); type: in vivo, rat
Protocol: (§1) Chronic colitis was induced by weekly rectal injections of increasing doses of TNBS over 6 weeks (15, 30, 45, 60, 60, and 60 mg from day 0 to day 35), as previously described (4,12). Briefly, after food deprivation for 24 h, rats were anesthetized with an intraperitoneal injection of 1% isoflurane. TNBS was dissolved in ethanol (50%) and instilled into the colon using a cannula (0.25 mL), and then the rats were held upside down for 3 min to prevent escape of the intracolonic TNBS. Roflumilast was dissolved in dimethyl sulfoxide and diluted in 0.5% carboxymethyl cellulose sodium to a final concentration of 5.0 mg·kg^−1·day^−1 as previously described (13). Five groups of rats (n=8) were established: normal control (NC group), TNBS-treated (TNBS group, positive control), and three TNBS-treated groups that received oral sulfasalazine (SS group, 500 mg/kg) (14), oral roflumilast (by gastric gavage, OR group, 5 mg/kg), or rectal roflumilast (RR group, 5 mg/kg). Treatments were administered once daily in a volume of 200 μL for 15 days starting 48 h after the induction of colitis (from day 37) (15), and the control rats received equal amounts of vehicle. At the end of the treatment period, the rats were evaluated with the colitis activity score. To detect the effects of the treatments on systemic inflammatory processes, blood was collected for measurements of the proinflammatory mediators TNF-α, IL-2, and IL-6. At the end of the 15-day treatment period, the rats were sacrificed by cervical dislocation, and the colon was isolated, cleaned of feces, and measured for weight and length. Colonic myeloperoxidase (MPO) activity and glutathione (GSH) and malonaldehyde (MDA) levels were measured. The colon was examined macroscopically for gross changes and microscopically in sections stained with hematoxylin and eosin (H&E), Masson trichrome, and Periodic Acid Schiff (PAS) stains as well as KI-67 and TNF-α immunostaining. The colonic segments were fixed in 10% buffered formalin and embedded in paraffin. Afterwards, 3-5-μm-thick sections were made and stained with H&E, Masson's trichrome for collagen, and PAS for lymphocytes and mucopolysaccharides. The severity of the lesions was evaluated by a blinded histopathologist as normal, mild, moderate, or marked injury (21).

[2] = system: TNBS-induced reduction in colon length; settings: 1 and 5 mg-kg−1·day−1; another study (13); cited from earlier work
[3] = oral; cited from earlier work
[4] = system: DSS-induced ulcerative colitis; settings: 5 mg/kg, male Wistar rats, cited from earlier work
[5] = system: ovalbumin-induced asthmatic mice; settings: inhaled; cited from earlier work
[6] = system: trinitrobenzenesulfonic acid (TNBS)-induced colitis; assay: Colonic length and macroscopic appearance in TNBS-induced chronic colitis; type: in vivo, rat
Protocol: as §1, with “immunostaining. After the rats were sacrificed, their colon was excised, and its length was measured.” for “immunostaining.”, “appearance” for “colonic segments were fixed in 10% buffered formalin and embedded in paraffin. Afterwards, 3-5-μm-thick sections were made and stained with H&E, Masson's trichrome for collagen, and PAS for lymphocytes and mucopolysaccharides. The severity”, “colon regarding edema, ulceration, and necrosis” for “lesions”, “(17).” for “by a blinded histopathologist as normal, mild, moderate, or marked injury (21).”

[7] = oral, once daily for 15 days, sulfasalazine 500 mg/kg, roflumilast 5 mg/kg
[8] = rectal, 5 mg/kg once daily for 15 days

Row | SMILES | PAS-stained goblet cells [1, 7] | collagen deposition, Masson trichrome [1, 7] | colonic sections stained with H&E, improvement [1, 7] | PAS-stained goblet cells [1, 8] | collagen deposition, Masson trichrome [1, 8] | colonic sections stained with H&E, improvement [1, 8] | TNBS-induced reduction in colon length [2] | elevated colonic concentration of TNF-α [2] | bioavailability [3] | colon length ([4]; compared with the DSS group) | histological scores ([4]; compared with the DSS group) | severity of colitis ([4]; compared with the DSS group) | weight loss ([4]; compared with the DSS group) | colon concentrations of TNF-α and NO, MPO activity, and inducible nitric oxide synthase gene expression [4] | inflammation and histopathological changes [5] | numbers of neutrophils, eosinophils, and macrophages in the bronchoalveolar lavage fluid [5] | Colonic length [6, 7] | Colonic macroscopic appearance [6, 7] | Colonic macroscopic appearance [6, 8]
1 | O=C(Nc1c(Cl)cncc1Cl)c1ccc(OC(F)F)c(OCC2CC2)c1 [roflumilast] | moderate population | moderate decrease | moderate improvement | small population | mild decrease | mild improvement | partially reverses | decreases | ~80% | preserved | improved | diminished | decreased | decreased | substantially improved | decreased | more improvement than rectal roflumilast | moderate to marked improvement | mild improvement
2 | O=C(O)c1cc(/N=N/c2ccc(S(=O)(=O)Nc3ccccn3)cc2)ccc1O [sulfasalazine] | nearly normal population | marked decrease | marked improvement | – | – | – | – | – | – | – | – | – | – | – | – | – | greatest effect | marked improvement | –
